# Patent US20100160556A1, “GLP-1 Fusion Peptides Conjugated to Polymer(s), Their Production and Use” (priority 2007, published 2010)
# Ends that are not written are not given here.
# Legend:
# [1] = test system: C57BL/KsJ@Rj-db (db/db) mice; test: Long-term treatment of db/db mice; type: in vivo
# Description: Peptides or vehicle will be given once daily (group A-D) between 2°°-3°° p m. subcutaneously in the skin fold of the back. The regimen was continued for 18 weeks. From week 12 to 18 treatment was done twice a day in 6 of 12 animals per group.
# Various parameters of the mice were investigated, i.e. health status (1), body weight (2), food consumption (3), blood glucose (4), glucose tolerance test (5), insulin data (6), glycosylated hemoglobin (7), pathology (8), and restimulation of T cells (9). • Health status (1) was good in all groups, no side effects of the treatment have been seen. • Body weight (2) was lower in all treated groups after 18 weeks of treatment (FIG. 13). […] The mean values of 12 animals per group are plotted. […] The relative body weight increase of 12 animals per group after a treatment of 122 days is plotted. […] Non-fasted blood glucose level (1 hour after peptide injection) is shown in FIG. 15A, i.e. the effect of a treatment with saline (A), CM1 (B), CM3-ANA01 (C) or exendin (D) on the non-fasted blood glucose levels. Blood glucose was measured from a tail bleed 1 hour after s.c. injection of saline (A) or the peptides CM1 (B), CM3-ANA01 (C) or exendin (D) in a concentration of 24 nmol/kg. […] Blood glucose was measured from a tail bleed after a 12-hour overnight fast 18 hours after s.c. injection of the test substances. Fasted blood glucose level 18h after peptide injection is reduced in the CM1 and CM3-ANA01 group. • An i.p. glucose tolerance test (5) (IPGTT) was conducted after 8 weeks of treatment on mice of the groups A-D. The basal blood glucose value (0 min) of 12 hour fasted animals has been determined by tail bleed followed by an s.c. injection of the test substance and an i.p. injection of 20% glucose solution (1g glucose per kg). Blood glucose has been further on determined 15, 30, 45, 60, 90 and 120 minutes after glucose injection. […] The serum was analysed for insulin with the Insulin Mouse Ultrasensitive ELISA (Cat.# EIA-3440, DRG). […]
# BALB/c mice [2] = test: In vivo immunogenicity study; conditions: 5 repeated injections, 70 μg peptide/dose, i.v., over 22d
# Description: (§1) The trial was done in BALB/c mice receiving 5 repeated injections (70 μg peptide/dose, i.v.) over 22d (n=5).
# (§2) Spleens of the treated and control mice were explanted, T-cells isolated and stimulated with increasing amounts of antigene. Proliferative recall response is measured.
# [3] = test system: type II diabetic mice (C57BL/Ks-Lepr db/db); test: In vivo bioactivity in type II diabetic mice; conditions: 5 μg peptide s.c. twice a day, day 2, 4, 7, 10
# Description: 11-week-old type II diabetic mice (C57BL/Ks-Lepr^db/db, Harlan) were treated with 5 μg peptide by subcutaneous injection twice a day at 9 a.m. and 5 p.m. (n=5 per group). Blood glucose was measured before (day 0) and after treatment with GLP^CM peptides (Day 2, 4, 7, 10) at 10 a.m. after an overnight fastening period. Data were presented in relation to blood glucose levels measured at day 0.
# Best results were obtained with recombinant SEQ ID NO:6 (CM1) and synthetic SEQ ID NO:8 (CM3). In FIG. 9 (y-axis) the relative effect of the treatment is shown. Blood glucose at day ═O was set to 1. Untreated animals undergo continuous increase in blood glucose level over time, whereas animals treated with inventive peptides display grosso modo a continuous decrease of the blood glucose level over time.
# BALB/c mice [4] = conditions: mouse, in vivo
# Description: as §1, §2
# [5] = test system: diabetic C57BL/KsJ@Rj-db (db/db) mice; test: Dose-efficacy study in diabetic mice; type: in vivo
# Description: A sixth group was treated with saline only. 7 animals were treated per group. Blood glucose was determined from tail bleeds directly before, 1 hour and 4 hours after injection.
# The results are shown in dose-response curves according to FIG. 12 ([…] (GLP-1), FIG. 12B (CM1), FIG. 12C (CM3) and FIG. 12D (CM3-ANA01)). For every test substance a graph was prepared with the percentage difference of the blood glucose in relation to the start value for the different concentrations. […] Both models are sigmoidal fit models suitable for dose response evaluation. For every peptide the plasma glucose ED50 values (single s.c. dose in μg/mouse) have been determined from the percentage decrease of blood glucose.
# The fall in plasma glucose and the corresponding significance levels are given for the time period 1 hour (@1 h) and 4 hours (@4 h) after peptide injection. Differences have been observed in the long-term efficacy of the peptides.
# GLP-1 receptor = target: T1, GLP-1 receptor (Homo sapiens, UniProt P43220); type: cell-based
# T1 construct: expressed in transfected cells; host or cells: CHO cell line
# T1 sequence (P43220 24-463, species assumed): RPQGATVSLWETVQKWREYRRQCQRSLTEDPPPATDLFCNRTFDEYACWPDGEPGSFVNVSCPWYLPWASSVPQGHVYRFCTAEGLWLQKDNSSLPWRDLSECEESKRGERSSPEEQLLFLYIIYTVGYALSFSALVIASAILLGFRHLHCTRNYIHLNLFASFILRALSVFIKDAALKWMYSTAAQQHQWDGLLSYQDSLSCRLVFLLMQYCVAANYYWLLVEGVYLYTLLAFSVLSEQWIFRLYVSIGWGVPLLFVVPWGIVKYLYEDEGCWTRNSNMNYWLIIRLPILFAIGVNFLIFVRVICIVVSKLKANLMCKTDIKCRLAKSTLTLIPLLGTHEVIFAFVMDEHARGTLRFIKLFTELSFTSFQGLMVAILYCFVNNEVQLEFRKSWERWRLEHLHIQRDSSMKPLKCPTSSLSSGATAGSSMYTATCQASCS
# Description: GLP-1 Bioassay cAMP Increase
# The in vitro bioactivity was tested in a GLP-1 receptor transfected CHO cell line by determining the half maximum effective dose (ED50)
# DPPIV [6] = target: T2, DPPIV (Homo sapiens, UniProt P27487); test: In vitro plasma stability (kinetic test method), GLP-1 (active) ELISA; conditions: for remaining at 9 h, 1 μM: human, pH 7.8
# Target sequence in this assay (P27487 whole entry): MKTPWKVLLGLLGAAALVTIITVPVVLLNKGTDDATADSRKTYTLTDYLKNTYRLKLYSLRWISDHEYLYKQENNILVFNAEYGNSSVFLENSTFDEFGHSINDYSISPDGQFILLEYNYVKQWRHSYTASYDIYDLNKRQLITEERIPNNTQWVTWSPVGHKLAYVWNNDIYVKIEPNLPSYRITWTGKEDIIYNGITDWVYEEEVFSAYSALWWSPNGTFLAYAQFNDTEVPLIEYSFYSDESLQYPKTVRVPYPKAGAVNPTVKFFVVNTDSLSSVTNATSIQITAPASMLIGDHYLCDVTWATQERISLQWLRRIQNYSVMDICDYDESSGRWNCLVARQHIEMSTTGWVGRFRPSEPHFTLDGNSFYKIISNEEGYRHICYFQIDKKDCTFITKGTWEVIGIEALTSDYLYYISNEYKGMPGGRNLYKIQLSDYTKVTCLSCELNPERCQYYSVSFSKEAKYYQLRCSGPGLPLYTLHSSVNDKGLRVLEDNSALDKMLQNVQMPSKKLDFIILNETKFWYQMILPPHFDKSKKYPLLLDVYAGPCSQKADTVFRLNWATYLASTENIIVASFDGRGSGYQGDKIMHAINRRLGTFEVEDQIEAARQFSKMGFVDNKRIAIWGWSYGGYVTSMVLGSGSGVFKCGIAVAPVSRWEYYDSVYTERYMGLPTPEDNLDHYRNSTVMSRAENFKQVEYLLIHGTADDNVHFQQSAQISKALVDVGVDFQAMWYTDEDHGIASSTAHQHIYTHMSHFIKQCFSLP
# Description: Results are from triplicates in at least two independent experiments.
# DPPIV [7] = target: T2, DPPIV; test: In vitro human plasma stability of GLP-1 CM peptides; conditions: 20 ng/ml, 37° C., 3 hours
# Target sequence in this assay (P27487 39-766 limits assumed): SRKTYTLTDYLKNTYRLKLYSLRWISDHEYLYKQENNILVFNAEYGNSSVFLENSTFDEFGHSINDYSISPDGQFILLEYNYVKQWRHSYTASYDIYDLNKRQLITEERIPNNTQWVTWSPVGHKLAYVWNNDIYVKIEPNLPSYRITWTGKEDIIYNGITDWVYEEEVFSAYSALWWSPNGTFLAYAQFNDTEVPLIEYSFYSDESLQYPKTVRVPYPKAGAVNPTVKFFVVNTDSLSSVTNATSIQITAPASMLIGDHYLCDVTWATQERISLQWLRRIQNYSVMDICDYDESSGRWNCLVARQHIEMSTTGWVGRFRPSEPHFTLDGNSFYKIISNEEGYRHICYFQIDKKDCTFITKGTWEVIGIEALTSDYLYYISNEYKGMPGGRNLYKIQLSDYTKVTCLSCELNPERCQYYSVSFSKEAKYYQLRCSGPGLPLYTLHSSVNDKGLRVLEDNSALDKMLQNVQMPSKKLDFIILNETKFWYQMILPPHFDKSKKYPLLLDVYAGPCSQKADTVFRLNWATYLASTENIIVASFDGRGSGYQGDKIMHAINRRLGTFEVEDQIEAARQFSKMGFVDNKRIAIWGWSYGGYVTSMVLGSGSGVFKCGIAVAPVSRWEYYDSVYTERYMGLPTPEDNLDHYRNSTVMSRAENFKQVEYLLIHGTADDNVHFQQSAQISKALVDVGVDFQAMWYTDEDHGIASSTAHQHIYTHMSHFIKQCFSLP
# Description: Dipeptidylpeptidase activity of the plasma was inhibited by an DPP-IV inhibitor (#DPP4, Biotrend).
# diabetic db/db mice = test: In vivo bioactivity of PEGylated peptide in diabetic db/db mice
substance,measurement,setting,value
GLP-1(7-37)—IP2-RR-GLP1(7-37) [CM1],food consumption,"[1]; 24 nmol/kg s.c., 122 day treatment period, compared to the control",significantly lower
same,fasted blood glucose level,"[1]; 12-hour overnight fast, 18h after peptide injection",reduced
same,non fasted blood glucose level compared to control,"[1]; 1h after s.c. peptide injection, 24 nmol/kg",55%
same,toxicity,BALB/c mice [2],no toxicity
same,anti-hyperglycemia effect (blood glucose relative to day 0),[3],anti-hyperglycemia effect
same,clinically relevant immunogenicity,BALB/c mice [4],absence of any clinically relevant immunogenicity
same,ED50 (plasma glucose),"[5]; single s.c. dose, 1 h measurements, percentage decrease of blood glucose",0.61 μg/mouse
same,fall in plasma glucose @1 h,"[5]; single s.c. injection of 1.1-3.0 nmol peptide, versus control, 1 hour",50% ± 14%
same,fall in plasma glucose @4 h,"[5]; single s.c. injection of 1.1-3.0 nmol peptide, versus control, 4 hours",0%
HAEGTFTSDVSSYLEGQAAKEFIAWLVKGRGAADFPEEVAIAEELG [CM3-ANA01],"ED50 (half maximum effective dose), cAMP increase",GLP-1 receptor,159 µM
same,active GLP-1 as a % of the 0 h value after 9 h,"DPPIV [6]; 1 μM peptide, 10% human plasma, 37° C., 9 h",84%
same,in vitro plasma stability (comparison),"DPPIV [6]; 10% human plasma, 37° C.",higher plasma stability than CM3
same,"remaining at 9 h, 1 μM",DPPIV [6]; 10% human plasma,84%
HAEGTFTSDVSSYLEGQAAKEFIAWLVKGRGRRDAAAAVAIAEELG [CM3-ANA03],in vitro plasma stability (comparison),"DPPIV [6]; 10% human plasma, 37° C.",strongly reduced stability compared to CM3
HAEGTFTSDVSSYLEGQAAKEFIAWLVKGRGRRDFPEEVAIAEELG [CM3],stability in human plasma in vitro,DPPIV [7],significantly stabilized
same,"ED50 (half maximum effective dose), cAMP increase",GLP-1 receptor,187 µM
same,"remaining at 9 h, 1 μM",DPPIV [6]; 10% human plasma,63%
PEG-CM3-ANA08: CM3-ANA08 covalently conjugated to unbranched 40 kDa mPEG maleimido propionamide via thiol of the C-terminal cysteine (HAEGTFTSDVSSYLEGQAAKEFIAWLVKGRGRRDFPEEVAIAEELGC),signs of toxicity,"diabetic db/db mice; mouse, in vivo",No signs of toxicity
same,blood glucose decrease,diabetic db/db mice; treated versus non-treated group,significant blood glucose decrease
same,ED50 relative to CM3 (lowered in vitro bioactivity),GLP-1 receptor; GLP-1 receptor transfected CHO cell line,approximately 5 times
same,peptide detected in the GLP-1 active ELISA,DPPIV [6]; 0 hours,19%
